This is an account of results in patent US10059713B2 (Takeda Pharmaceutical Company Limited, priority 2014, dated 2018).

A word on the EC50: it is the concentration needed to bring the measured effect to its halfway point.

Each structure is given as a SMILES string.

Chain of human GPR43 (O15552 whole entry): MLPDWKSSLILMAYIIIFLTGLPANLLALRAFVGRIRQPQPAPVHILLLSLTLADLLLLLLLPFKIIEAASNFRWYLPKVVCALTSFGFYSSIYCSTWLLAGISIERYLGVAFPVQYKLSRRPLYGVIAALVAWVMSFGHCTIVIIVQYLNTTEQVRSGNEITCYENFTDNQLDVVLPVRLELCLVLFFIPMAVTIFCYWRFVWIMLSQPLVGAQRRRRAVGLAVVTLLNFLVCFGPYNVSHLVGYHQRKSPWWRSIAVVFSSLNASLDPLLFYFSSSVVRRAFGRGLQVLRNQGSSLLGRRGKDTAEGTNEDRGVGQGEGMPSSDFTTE

The target of the experiment is human GPR43 (Homo sapiens (Human), UniProt O15552). Kind of experiment: Ca-Flux functional assay: determination of agonist/positive allosteric modulator (PAM) activity. Type of experiment: cell-based. Particulars: CHO-K1 Gα16 cells stably expressing human GPR43; compound added with EC20 sodium acetate; intracellular Ca2+ by FLIPR; does not distinguish agonist from PAM. The procedure:
Ca-Flux Functional Assay: Determination of Agonist/Positive Allosteric Modulator (PAM) Activity
GPR43 agonist/PAM activity was determined by measuring changes in intracellular calcium levels using a Ca^2+ sensitive fluorescent dye. The changes in fluorescent signal were monitored by FLIPR (manufactured by Molecular Devices). GPR43 mediated increases in intracellular Ca^2+ concentration were readily detected upon activation with sodium acetate. Prior to the assay (24 hours), CHO-K1 Gα16 cells stably expressing human GPR43 were-seeded in cell culture medium in black, clear-bottom 384-well plates (Corning Inc) and grown overnight at 37° C., 5% CO2. On the day of the assay, cell culture media was removed and cells were loaded with Calcium 5 Dye (Molecular Devices) diluted in HBSS containing 25 mM HEPES, 2.5 mM Probenecid, 0.1% BSA for 1 hour at 37° C., 5% CO2. 10 point half log concentration response curves of sodium acetate from 10 mM were conducted prior to the testing of compounds to calculate the sodium acetate concentration that produces 20% of the maximal response (EC20). Test compounds (at 10 point half log concentration response curves from 10 μM) were added in the presence of sodium acetate to achieve a final concentration that produces approximately 20% maximal response as calculated from the previous experiment. The changes in fluorescent signal were monitored by FLIPR upon addition of the compound/EC20 sodium acetate mix. The EC50 values were determined from ten point concentration response curves. Curves were generated using the average of two wells for each data point.
The above assay detects both GPR43 receptor agonists and positive allosteric modulators of the GPR43 receptor, without distinguishing between the two. Activity in either regard is useful in the treatment of conditions associated with GPR43 receptor activity.
In the case of `Nc1[nH]c2c(C3CCCCC3)ncnc2c1S(=O)(=O)c1cccc(F)c1` [Example 39, 4-cyclohexyl-7-[(3-fluorobenzene)sulfonyl]-5H-pyrrolo[3,2-d]pyrimidin-6-amine], the EC50 is 80 nM. With `COC1CCCN(c2ncnc3c(S(=O)(=O)c4ccccc4)c(N)[nH]c23)C1` (stereo not drawn) [Example 105, 7-(benzenesulfonyl)-4-(3-methoxypiperidin-1-yl)-5H-pyrrolo[3,2-d]pyrimidin-6-amine] the figure was 207 nM; with `N#CC1CN(c2ncnc3c(S(=O)(=O)c4ccccc4)c(N)[nH]c23)CCO1` (stereo not drawn) [Example 216, 4-[6-amino-7-(benzenesulfonyl)-5H-pyrrolo[3,2-d]pyrimidin-4-yl]morpholine-2-carbonitrile], 117 nM. With `Cc1nc(N2CCO[C@@H](CF)C2)c2[nH]c(N)c(S(=O)(=O)c3ccccc3F)c2n1` [Example 299, 7-(2-fluorobenzenesulfonyl)-4-[(2R)-2-(fluoromethyl)morpholin-4-yl]-2-methyl-5H-pyrrolo[3,2-d]pyrimidin-6-amine] the figure was 1 nM; with `COc1ccc(N(C)S(=O)(=O)c2c(N)[nH]c3c(C4=CCCCC4)ncnc23)cc1` [Example 14, 6-amino-4-(cyclohex-1-en-1-yl)-N-(4-methoxyphenyl)-N-methyl-5H-pyrrolo[3,2-d]pyrimidine-7-sulfonamide], 2580 nM; with `Cc1nc(OC2CCCOC2(C)C)c2[nH]c(N)c(S(=O)(=O)c3ccccc3F)c2n1` (stereo not drawn) [Example 296, 4-[(2,2-dimethyloxan-3-yl)oxy]-7-(2-fluorobenzenesulfonyl)-2-methyl-5H-pyrrolo[3,2-d]pyrimidin-6-amine], 53 nM. `CCC1(C)CN(c2ncnc3c(S(=O)(=O)c4ccccc4)c(N)[nH]c23)CCO1` (stereo not drawn) [Example 221, 7-(benzenesulfonyl)-4-(2-ethyl-2-methylmorpholin-4-yl)-5H-pyrrolo[3,2-d]pyrimidin-6-amine] gave an EC50 of 104 nM. In turn, `Cc1nc(N2CCO[C@H](C(F)(F)F)C2)c2[nH]c(N)c(S(=O)(=O)c3c(F)cccc3F)c2n1` [Example 294, 7-(2,6-Difluorobenzenesulfonyl)-2-methyl-4-[(2S)-2-(trifluoromethyl)morpholin-4-yl]-5H-pyrrolo[3,2-d]pyrimidin-6-amine] showed an EC50 of 4 nM. This EC50 lies about 26-fold lower than the previous one. For `Nc1[nH]c2c(C3CCCCC3)nc(C3CC3)nc2c1S(=O)(=O)c1ccccc1` [Example 131, 7-(benzenesulfonyl)-4-cyclohexyl-2-cyclopropyl-5H-pyrrolo[3,2-d]pyrimidin-6-amine] the value was 166 nM; for `CC1CCN(c2ncnc3c(S(=O)(=O)c4ccccc4)c(N)[nH]c23)CC1` [Example 59, 7-(benzenesulfonyl)-4-(4-methylpiperidin-1-yl)-5H-pyrrolo[3,2-d]pyrimidin-6-amine], 57 nM. With `Cc1nc(N2C[C@@H](C)O[C@@H](C)C2)c2[nH]c(N)c(S(=O)(=O)c3cccc(F)c3)c2n1` [Example 179, 4-[(2R,6S)-2,6-dimethylmorpholin-4-yl]-7-(3-fluorobenzenesulfonyl)-2-methyl-5H-pyrrolo[3,2-d]pyrimidin-6-amine] the figure was 18 nM; with `Nc1[nH]c2c(-c3cccnc3)ncnc2c1S(=O)(=O)c1ccccc1` [Example 67, 7-(benzenesulfonyl)-4-(pyridin-3-yl)-5H-pyrrolo[3,2-d]pyrimidin-6-amine], 3170 nM; with `Nc1[nH]c2c(C3=CCCCC3)cncc2c1S(=O)(=O)c1ccccc1` [Example 16, 3-(benzenesulfonyl)-7-(cyclohex-1-en-1-yl)-1H-pyrrolo[3,2-c]pyridin-2-amine], 21 nM. The compound `C=C(C)c1nc(C)nc2c(S(=O)(=O)c3ccccc3F)c(N)[nH]c12` [Example 224, 7-(2-fluorobenzenesulfonyl)-2-methyl-4-(prop-1-en-2-yl)-5H-pyrrolo[3,2-d]pyrimidin-6-amine] gave an EC50 of 85 nM. As to `Nc1[nH]c2c(N3CCO[C@@H](c4ccccc4)C3)ncnc2c1S(=O)(=O)c1ccccc1` [Example 134, 7-(benzenesulfonyl)-4-[(2S)-2-phenylmorpholin-4-yl]-5H-pyrrolo[3,2-d]pyrimidin-6-amine], the EC50 turned out to be 93 nM. As for `Nc1[nH]c2c(C3=CCCCC3)ncnc2c1S(=O)(=O)c1ccc(F)c(F)c1` [Example 49, 4-(cyclohex-1-en-1-yl)-7-[(3,4-difluorobenzene)sulfonyl]-5H-pyrrolo[3,2-d]pyrimidin-6-amine], the midpoint of the response, the EC50, lay at 113 nM. The compound `Cc1nc(OC2CCC2)c2[nH]c(N)c(S(=O)(=O)c3ccccc3)c2n1` [Example 252, 7-(benzenesulfonyl)-4-cyclobutoxy-2-methyl-5H-pyrrolo[3,2-d]pyrimidin-6-amine] registered an EC50 of 67 nM. Regarding `Cc1nc(N2CCCC(C)C2)c2[nH]c(N)c(S(=O)(=O)c3cccc(F)c3)c2n1` (stereo not drawn) [Example 198, 7-(3-fluorobenzenesulfonyl)-2-methyl-4-(3-methylpiperidin-1-yl)-5H-pyrrolo[3,2-d]pyrimidin-6-amine], the EC50 turned out to be 31 nM. In the case of `CC1(C)CN(c2ncnc3c(S(=O)(=O)c4ccccc4)c(N)[nH]c23)CCO1` [Example 84, 7-(benzenesulfonyl)-4-(2,2-dimethylmorpholin-4-yl)-5H-pyrrolo[3,2-d]pyrimidin-6-amine], a half-maximal response (EC50) required 29 nM.

The compound `CC1CN(c2ncnc3c(S(=O)(=O)Cc4ccccc4)c(N)[nH]c23)CCO1` (stereo not drawn) [Example 125, 4-(2-methylmorpholin-4-yl)-7-phenylmethanesulfonyl-5H-pyrrolo[3,2-d]pyrimidin-6-amine] showed an EC50 of 5520 nM. Consider `Nc1[nH]c2c(O[C@@H]3CCOC3)ncnc2c1S(=O)(=O)c1ccccc1` [Example 159, 7-(benzenesulfonyl)-4-[(3R)-oxolan-3-yloxy]-5H-pyrrolo[3,2-d]pyrimidin-6-amine], for which the EC50 was determined as 5250 nM. Compound `Nc1[nH]c2c(C3=CCCC3)ncnc2c1S(=O)(=O)c1ccccc1` [Example 22, 7-(benzenesulfonyl)-4-(cyclopent-1-en-1-yl)-5H-pyrrolo[3,2-d]pyrimidin-6-amine] displayed an EC50 of 73 nM. This EC50 lies about 72-fold lower than the previous one. In turn, `CC1CN(c2ncnc3c(S(=O)(=O)c4ccccc4)c(N)[nH]c23)C(C)CO1` (stereo not drawn) [Example 85, 7-(benzenesulfonyl)-4-(2,5-dimethylmorpholin-4-yl)-5H-pyrrolo[3,2-d]pyrimidin-6-amine] had an EC50 of 19 nM. This EC50 lies about 3.8-fold lower than the previous one. Compound `CC1CCCCN1c1ncnc2c(S(=O)(=O)c3ccccc3)c(N)[nH]c12` (stereo not drawn) [Example 69, 7-(benzenesulfonyl)-4-(2-methylpiperidin-1-yl)-5H-pyrrolo[3,2-d]pyrimidin-6-amine] registered an EC50 of 49 nM.

For the compound `Cc1nc(N2CCO[C@@H](C(F)(F)F)C2)c2[nH]c(N)c(S(=O)(=O)c3ccc(Cl)cc3F)c2n1` [Example 297, 7-(4-chloro-2-fluorobenzenesulfonyl)-2-methyl-4-[(2R)-2-(trifluoromethyl)morpholin-4-yl]-5H-pyrrolo[3,2-d]pyrimidin-6-amine], the EC50 is 2 nM. With `Cc1nc(OC2CCOC(C)(C)C2)c2[nH]c(N)c(S(=O)(=O)c3ccccc3)c2n1` (stereo not drawn) [Example 253, 7-(benzenesulfonyl)-4-[(2,2-dimethyloxan-4-yl)oxy]-2-methyl-5H-pyrrolo[3,2-d]pyrimidin-6-amine] the figure was 133 nM; with `Cc1ccc(-c2ncnc3c(S(=O)(=O)c4ccccc4)c(N)[nH]c23)cc1` [Example 104, 7-(benzenesulfonyl)-4-(4-methylphenyl)-5H-pyrrolo[3,2-d]pyrimidin-6-amine], 59 nM.
